Like-named read-outs stand apart in the source and are kept apart here.
Columns and labels:
METTL3/METTL14 = METTL3/METTL14 (Homo sapiens, UniProt Q86U44); assay: METTL3-14 Standard Enzyme Assay (METTL3 biochemical assay)
Method in brief: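 Tritium transfer from ³H-SAM (100 nM) to biotinylated RNA (100 nM) captured on streptavidin flashplates and counted by scintillation. Enzyme complex (2.5 nM) with compound, 5 min preincubation, 30 min reaction at ambient temperature, HEPES pH 7.5 buffer, stopped by excess unlabeled SAM.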

PRMT5-MEP50 = PRMT5-MEP50 (Homo sapiens, UniProt O14744); assay: PRMT5 Assay (PRMT5 biochemical assay)
Chain of PRMT5-MEP50 (O14744 whole entry): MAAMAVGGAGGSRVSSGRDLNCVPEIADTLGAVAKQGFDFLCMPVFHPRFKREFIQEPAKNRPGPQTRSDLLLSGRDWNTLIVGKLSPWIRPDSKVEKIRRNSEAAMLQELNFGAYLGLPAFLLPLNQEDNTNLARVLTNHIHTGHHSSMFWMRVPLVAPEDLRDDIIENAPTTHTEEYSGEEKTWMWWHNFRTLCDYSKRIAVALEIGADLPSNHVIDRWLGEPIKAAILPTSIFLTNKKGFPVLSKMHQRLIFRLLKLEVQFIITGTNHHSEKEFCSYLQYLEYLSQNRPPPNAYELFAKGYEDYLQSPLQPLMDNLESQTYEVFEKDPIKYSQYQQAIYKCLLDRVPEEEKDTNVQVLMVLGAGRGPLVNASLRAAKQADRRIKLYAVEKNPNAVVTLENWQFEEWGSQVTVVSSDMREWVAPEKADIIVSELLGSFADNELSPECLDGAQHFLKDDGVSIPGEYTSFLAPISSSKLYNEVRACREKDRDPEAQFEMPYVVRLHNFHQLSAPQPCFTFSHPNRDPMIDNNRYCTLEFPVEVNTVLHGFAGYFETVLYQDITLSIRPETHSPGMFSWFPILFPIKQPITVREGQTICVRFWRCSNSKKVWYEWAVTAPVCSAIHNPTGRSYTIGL
Chain of PRMT5-MEP50 (Q9BQA1 whole entry partner): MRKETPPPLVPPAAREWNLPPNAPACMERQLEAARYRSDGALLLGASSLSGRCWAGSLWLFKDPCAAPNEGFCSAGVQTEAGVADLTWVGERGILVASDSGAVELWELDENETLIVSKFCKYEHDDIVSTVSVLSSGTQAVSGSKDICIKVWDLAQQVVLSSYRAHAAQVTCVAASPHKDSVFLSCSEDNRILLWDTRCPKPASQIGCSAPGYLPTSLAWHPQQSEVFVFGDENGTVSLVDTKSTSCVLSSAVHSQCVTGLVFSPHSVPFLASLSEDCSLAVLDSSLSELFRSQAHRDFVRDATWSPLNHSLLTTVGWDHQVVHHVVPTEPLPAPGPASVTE
Method in brief: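 Radiometric methyltransferase read-out: after 60 min reaction, excess unlabelled SAM (15 μM) stops turnover and biotinylated H4 peptide (100 nM) carrying 3H-methyl from 250 nM 3H-SAM is captured on streptavidin flashplates (2 h, 25° C) for scintillation counting. Enzyme, 2.5 nM PRMT5-MEP50, was preincubated 5 min with compound in pH 8.0 Tris buffer with DTT and Tween.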

MOLM-13 cells [1] = assay: MOLM-13 96 Hour Cell Proliferation Assay; assay type: cell-based; conditions: Homo sapiens
Protocol: MOLM-13 (DSMZ) cells were seeded at 600 cells per well in a volume of 44 μL in a Greiner Bio-One CELLSTAR™ 384 Well Polystyrene Cell Culture clear bottom microplate in RPMI 1640 media containing 10% fetal bovine serum using a Multidrop Combi (ThermoFisher Scientific). Cells were incubated overnight at 37° C. in a humidified tissue culture incubator. To prevent evaporation or to reduce edge effect, add 50 μL or more H2O to an empty plate, cover, and place on top of the cell plates. The Mosquito® HTS Liquid Handler was used to make a compound/media intermediate plate by aliquoting 1 μL of compound from the initial compound dilution plate (concentrations ranging from 10.0 mM to 38.0 nM in 100% DMSO) into Bio-One 384-well polypropylene conical bottom microplate containing 49 μL of media containing the appropriate serum (50-fold dilution, 2% DMSO, compound concentrations ranging from 200.0 μM and […]). The Apricot liquid handling system was used to transfer 6.2 μL compounds from the intermediate plate into the seeding plate containing 44 μL cells (8-fold dilution spanning concentrations 25.0 μM to […], 0.25% DMSO final), and placed in a humidified tissue culture incubator at 37° C. After 96 hours, 25 μL of Cell Titer-Glo reagent (Promega) was added to each well using an Integra liquid handling system. The plate was protected from light using TopSeal-A (Black) film over the entire plate, added White Bottom seal film on the bottom of the entire plate for a better reading on the Envision, and placed on an IKA plate shaker for at 300 rpm for 10 minutes at room temperature. The plate was read on an EnVision plate reader (Perkin Elmer) using the Ultra Sensitive Luminescence protocol. Data analysis was performed by normalizing the raw luminescence units to an average of the positive control values for staurosporine (100% cell death) and the negative control values for DMSO (0% cell death). An IC50 was calculated using a 4-parameter logistic nonlinear regression model in GraphPad Prism.

METTL1/WDR4 = METTL1/WDR4 (Homo sapiens, UniProt Q9UBP6); assay: METTL1 Assay (METTL1 biochemical assay)
Chain of METTL1/WDR4 (Q9UBP6 whole entry, species assumed): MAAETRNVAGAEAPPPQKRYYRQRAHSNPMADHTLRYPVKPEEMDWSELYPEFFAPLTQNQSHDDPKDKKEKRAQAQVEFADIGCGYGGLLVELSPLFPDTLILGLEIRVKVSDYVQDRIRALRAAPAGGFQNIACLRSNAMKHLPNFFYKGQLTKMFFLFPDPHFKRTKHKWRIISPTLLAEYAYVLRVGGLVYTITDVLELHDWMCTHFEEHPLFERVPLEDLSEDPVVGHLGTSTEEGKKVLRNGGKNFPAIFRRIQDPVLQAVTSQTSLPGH
Chain of METTL1/WDR4 (P57081 whole entry partner, species assumed): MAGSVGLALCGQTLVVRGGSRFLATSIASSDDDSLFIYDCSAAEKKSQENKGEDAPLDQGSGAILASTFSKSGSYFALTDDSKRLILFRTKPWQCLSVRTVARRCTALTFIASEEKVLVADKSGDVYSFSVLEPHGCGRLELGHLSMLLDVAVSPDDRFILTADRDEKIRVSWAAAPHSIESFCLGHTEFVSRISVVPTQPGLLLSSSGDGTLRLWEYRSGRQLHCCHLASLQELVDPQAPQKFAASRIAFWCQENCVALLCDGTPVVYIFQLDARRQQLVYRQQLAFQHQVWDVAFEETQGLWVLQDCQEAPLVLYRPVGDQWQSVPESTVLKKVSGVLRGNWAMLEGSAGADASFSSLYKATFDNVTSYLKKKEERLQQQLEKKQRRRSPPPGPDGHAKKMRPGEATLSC
Protocol: Assays were performed in a 25 μl-volume in 384-well V-bottom polypropylene microplates (Greiner Bio-One, cat. No. 781280) at ambient temperature. Optimized 1× assay buffer was 20 mM HEPES pH 7.5, 50 mM KCl, 250 μM MgCl2, 1 mM DTT, 0.01% Tween, 0.01% BSG, 0.004 U/μl RNAseOUT (cat. No. 10777019, ThermoFisher Scientific, Waltham, Mass.). For compound screening METTL1/WDR4 (final concentration, f.c.=6.25 nM) was added using a Multidrop Combi (ThermoFisher Scientific, Waltham, Mass.) and preincubated for 5 min. Reactions were started by adding 3′ biotinylated RNA ([…]-biotin) (f.c.=25 nM) and 3H-SAM (f.c.=60 nM) substrates. Reactions proceeded for 20 minutes and were quenched with excess non-radioactive SAM (f.c.=15 μM). The reactions were then transferred to streptavidin-coated flashplates and incubated for 2 hours at 25° C. Following two washing cycles with 0.1% Tween-20, the plates were sealed and read on a TopCount (PerkinElmer, Waltham, Mass.) plate-based scintillation counter. For determination of kinetic parameters, reaction times were optimized so that measurements were taken during the initial velocity phase of the reaction.

MOLM-13 cells [2] = assay: MOLM-13 48 Hour Cell Proliferation Assay; assay type: cell-based; conditions: Homo sapiens
Protocol: MOLM-13 (DSMZ) cells were seeded at 1000 cells per well in a volume of 44 μL in a Falcon 384-well tissue culture treated clear bottom microplate in RPMI 1640 media containing 10% fetal bovine serum using a Multidrop Combi (ThermoFisher Scientific). Cells were incubated overnight at 37° C. in a humidified tissue culture incubator. The Mosquito® HTS Liquid Handler was used to make a compound/media intermediate plate by aliquoting 1 μL of compound from the initial compound dilution plate (concentrations ranging from 10.0 mM to 38.0 nM in 100% DMSO) into a V bottom 384-well screen matrix plate containing 49 μL of media containing the appropriate serum (50-fold dilution, 2% DMSO). The Apricot liquid handling system was used to transfer 6.2 μL compounds from the intermediate plate into the Falcon 384-well tissue culture plate containing 44 μL cells (10-point, 4-fold dilution spanning concentrations 25.0 μM to […], 0.25% DMSO final), and placed in a humidified tissue culture incubator at 37° C. After 48 hours, 25 μL of Cell Titer-Glo reagent (Promega) was added to each well using a Multidrop Combi. The plate was protected from light and placed on an IKA plate shaker for at 300 rpm for 10 minutes at room temperature. The plate was read on an EnVision plate reader (Perkin Elmer) using the Ultra Sensitive Luminescence protocol. Data analysis was performed by normalizing the raw luminescence units to an average of the positive control values for staurosporine (100% cell death) and the negative control values for DMSO (0% cell death). An IC50 was calculated using a 4-parameter logistic nonlinear regression model in GraphPad Prism.

[3] = read-out: METTL3 IC50, METTL3 biochemical assay
[4] = METTL1 biochemical assay, read-out: METTL1 IC50
[5] = read-out: PRMT5 IC50, PRMT5 biochemical assay
[6] = METTL3 biochemical assay, read-out: METTL3 IC50
[7] = read-out: METTL1 IC50, METTL1 biochemical assay
[8] = PRMT5 biochemical assay, read-out: PRMT5 IC50

Chain of METTL3/METTL14 (Q86U44 whole entry, species assumed): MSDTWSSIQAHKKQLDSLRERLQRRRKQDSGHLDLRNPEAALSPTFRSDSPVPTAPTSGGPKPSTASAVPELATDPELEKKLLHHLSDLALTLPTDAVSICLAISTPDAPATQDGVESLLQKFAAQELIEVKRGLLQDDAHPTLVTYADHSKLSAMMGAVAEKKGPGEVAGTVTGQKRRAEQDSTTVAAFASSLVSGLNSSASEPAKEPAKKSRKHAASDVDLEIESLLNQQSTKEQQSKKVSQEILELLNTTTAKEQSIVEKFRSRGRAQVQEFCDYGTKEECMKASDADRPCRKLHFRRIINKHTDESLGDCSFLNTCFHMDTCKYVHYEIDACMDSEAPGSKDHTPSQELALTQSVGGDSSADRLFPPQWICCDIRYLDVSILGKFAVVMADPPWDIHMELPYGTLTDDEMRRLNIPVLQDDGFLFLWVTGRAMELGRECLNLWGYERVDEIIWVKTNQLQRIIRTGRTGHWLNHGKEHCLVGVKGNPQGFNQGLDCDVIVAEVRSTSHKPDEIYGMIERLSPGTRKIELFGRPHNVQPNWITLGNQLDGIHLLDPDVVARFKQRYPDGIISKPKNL
Chain of METTL3/METTL14 (Q9HCE5 whole entry partner, species assumed): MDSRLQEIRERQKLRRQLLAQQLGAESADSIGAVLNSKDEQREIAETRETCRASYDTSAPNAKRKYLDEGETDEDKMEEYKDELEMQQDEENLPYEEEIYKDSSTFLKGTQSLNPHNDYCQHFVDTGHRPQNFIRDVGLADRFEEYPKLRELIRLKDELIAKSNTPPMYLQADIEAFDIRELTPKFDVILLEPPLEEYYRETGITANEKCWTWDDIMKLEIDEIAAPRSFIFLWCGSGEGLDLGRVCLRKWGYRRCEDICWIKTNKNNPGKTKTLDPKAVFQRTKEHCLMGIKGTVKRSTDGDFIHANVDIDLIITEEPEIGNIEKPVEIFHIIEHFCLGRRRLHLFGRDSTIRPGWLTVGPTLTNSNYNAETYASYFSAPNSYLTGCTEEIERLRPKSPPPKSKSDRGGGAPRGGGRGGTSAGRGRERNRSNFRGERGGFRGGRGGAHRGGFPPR

Row | Compound | IC50 (METTL3/METTL14) | IC50 (MOLM-13 cells [1]) | IC50 (MOLM-13 cells [2]) | IC50 (PRMT5-MEP50; [8]) | also measured
1 | COCCN(C)C(=O)c1cn([C@@H]2O[C@H](COc3ccc4ccc(N5CCC5)nc4c3)[C@@H](O)[C@@H]2F)c2ncnc(N)c12 [I-217] | 10 to 100 nM | > 10000 nM | – | – | IC50 (PRMT5-MEP50): > 1000 nM
2 | CNc1ccc2ccc(OC[C@H]3O[C@@H](n4cc(-c5ccn(C6COC6)n5)c5c(N)ncnc54)[C@@H](F)[C@@H]3O)cc2n1 [I-144] | – | – | 1 to 10 µM | – | IC50 (METTL3/METTL14; [3]): < 10 nM; IC50 (METTL1/WDR4; [4]): > 1000 nM; IC50 (PRMT5-MEP50; [5]): 100 to 1000 nM
3 | CCc1cc(N(C)C2CC2)c2ccc(OC[C@H]3O[C@@H](n4cc(-c5ccn(C)n5)c5c(N)ncnc54)[C@@H](F)[C@@H]3O)cc2n1 [I-154] | < 10 nM | 1000 to 10000 nM | 1 to 10 µM | – | –
4 | CCc1cc(N(C)C2CC2)c2ccc(OC[C@H]3O[C@@H](n4cc(-c5ccn(C)n5)c5c(N)ncnc54)C[C@@H]3O)cc2n1 [I-160] | < 10 nM | 1000 to 10000 nM | 1 to 10 µM | – | –
5 | Nc1ncnc2c1c(-c1ncco1)cn2[C@@H]1O[C@H](COc2ccc3ccc(N4CCC4)nc3c2)[C@@H](O)[C@@H]1F [I-219] | < 10 nM | < 1000 nM | – | – | IC50 (PRMT5-MEP50): > 1000 nM
6 | CNc1ccc2ccc(OC[C@H]3O[C@@H](n4cc(CC5CC5)c5c(N)ncnc54)[C@H](O)[C@@H]3O)cc2n1 [I-142] | – | – | 1 to 10 µM | 10 to 100 nM | IC50 (METTL3/METTL14; [6]): < 10 nM; IC50 (METTL1/WDR4; [7]): > 1000 nM
7 | CCc1cc(N2CCOCC2)c2ccc(OC[C@H]3O[C@@H](n4cc(-c5ccn(C)n5)c5c(N)ncnc54)[C@@H](F)[C@@H]3O)cc2n1 [I-156] | < 10 nM | < 1000 nM | 1 to 10 µM | – | –
8 | Nc1ncnc2c1ccn2[C@@H]1C[C@H](CCc2ccc3nccnc3c2)[C@@H](O)[C@H]1O [I-130] | – | – | – | < 10 nM | IC50 (METTL1/WDR4; [7]): > 1000 nM; IC50 (MOLM-13 cells [1]; MOLM-13, 96 h): < 1000 nM
9 | CCc1cc(N(C)C)c2ccc(OC[C@H]3O[C@@H](n4cc(-c5ccn(C)n5)c5c(N)ncnc54)[C@@H](F)[C@@H]3O)cc2n1 [I-153] | < 10 nM | < 1000 nM | 1 to 10 µM | – | –
10 | CNc1ccc2ccc(OC[C@H]3O[C@@H](n4cc(F)c5c(N)ncnc54)[C@@H](F)[C@@H]3O)cc2n1 [I-230] | – | – | 1 to 10 µM | 10 to 100 nM | IC50 (METTL3/METTL14; [6]): < 10 nM; IC50 (METTL1/WDR4): > 1000 nM
11 | Cn1ccc(-c2cn([C@@H]3O[C@H](COc4ccc5cnc(N6CCC6)nc5c4)[C@@H](O)[C@@H]3F)c3ncnc(N)c23)n1 [I-199] | < 10 nM | 1000 to 10000 nM | – | – | IC50 (PRMT5-MEP50): > 1000 nM
12 | CCNc1ccc2ccc(OC[C@H]3O[C@@H](n4cc(-c5ccn(C)n5)c5c(N)ncnc54)[C@@H](F)[C@@H]3O)cc2n1 [I-7] | – | – | – | – | IC50 (METTL3/METTL14; [3]): < 10 nM; IC50 (METTL1/WDR4; [4]): > 1000 nM; IC50 (PRMT5-MEP50; [5]): 10 to 100 nM; IC50 (MOLM-13 cells [1]; MOLM-13, 96 h): < 1000 nM
13 | CNc1ccc2ccc(OC[C@H]3O[C@H](n4cc(C(O)C5CC5)c5c(N)ncnc54)[C@H](O)[C@@H]3O)cc2n1 (some centres unmarked) [I-227] | – | – | > 10 µM | < 10 nM | IC50 (METTL3/METTL14; [6]): < 10 nM; IC50 (METTL1/WDR4): > 1000 nM

From patent US20230027361A1, “METTL3 MODULATORS” (priority 2019, published 2023)
